In the experiment the target is human recombinant GPR65 (Homo sapiens, UniProt Q8IYL9). Briefly: Human GPR65 cAMP HTRF antagonist assay. Type of experiment: cell-based. The text has this: In one preferred embodiment, the compound prevents the increase in cytoplasmic cAMP levels expected following GPR65 activation at acidic pH. This prevention of cAMP accumulation in turn prevents downstream signalling through ICER, as described above. The “Human GPR65 cyclic adenosine monophosphate (cAMP) Homogeneous Time Resolved Fluorescence (HTRF) antagonist assay”, or simply “cAMP assay”, as described in the accompanying examples, can be used to measure the potency of GPR65 modulators, which is expressed as the concentration of compound required to reduce the increase in cAMP concentration upon GPR65 activation by 50% (i.e. an IC50).
Human GPR65 Cyclic Adenosine Monophosphate (cAMP) Homogeneous Time Resolved Fluorescence (HTRF) Antagonist Assay Procedure
IC50 data was obtained by the following procedure:
1321N1 human astrocytoma cells stably expressing human recombinant GPR65 (1321N1-hrGPR65 cells, EuroscreenFast) were cultured according to the vendor's instructions.
Compounds were tested for their ability to antagonise GPR65, through measuring the concentration of cytoplasmic cAMP following treatment of the cells at a pH of 7.2 to activate GPR65 signalling and addition of the compound to be tested. The extent to which the expected rise in cAMP concentration upon GPR65 activation was suppressed by the added compound is indicative of its potency. The assay was carried out according to EuroscreenFast assay Methodology as follows.
On the day of the assay, test compounds were added to 384-well, low volume, white microtiter plates by acoustic dispensing. KRH buffer (5 mM KCl, 1.25 mM MgSO4, 124 mM NaCl, 25 mM HEPES, 13.3 mM Glucose, 1.25 mM KH2PO4 and 1.45 mM CaCl2) was adjusted to pH 6.5, pH 7.6 and pH 8.4 by adding NaOH. 1321N1-hGPR65 cells were rapidly thawed and diluted in KRH, pH 7.6 prior to centrifugation at 300×g for 5 min and resuspension in assay buffer (KRH, pH 7.6, supplemented with 1 mM 3-isobutyl-1-methylxanthine (IBMX) and 200 μM ethylenediaminetetraacetic acid (EDTA)). Cells were added to assay plates at a density of 2,000 cells per well in a volume of 5 μl. Assay plates were briefly centrifuged at 100×g and then incubated at room temperature for 30 min. Cells were stimulated by the addition of 5 μL KRH, pH 6.5, to achieve an assay pH of 7.2, while control wells received 5 μl KRH, pH 8.4 to achieve an assay pH of 7.9. Assay plates were briefly centrifuged at 100×g and then incubated at room temperature for 30 min.
Accumulation of cAMP was detected by cAMP HTRF kit (Cisbio). d2-labeled cAMP and cryptate-labeled anti-cAMP antibody in Lysis and Detection Buffer (Cisbio) were added to assay plates, and the plates were incubated at room temperature for 1 h. HTRF measurements were performed using a Pherastar FSX instrument. Acceptor and donor emission signals were measured at 665 nm and 620 nm, respectively, and HTRF ratios were calculated as signal665 nm/signal620 nm×10^4. Data were normalised to high and low control values and fitted with 4-parameter logistic regression to determine hGPR65 IC50 values for the test compounds, which are shown in Table 1.
A general note: TR-FRET usually uses a lanthanide donor and a delayed reading to cut background.

Where [1] appears, read: 1321N1-hrGPR65 cells, cAMP HTRF, assay pH 7.2, read-out: hGPR65 IC50 (Activity of selected compounds according to the invention).

Where two headings read alike, the source gives them in different places.

The record followed here is patent US20240368173A1, “TRICYCLIC GPR65 MODULATORS” (PATHIOS THERAPEUTICS LIMITED, priority 2021, published 2024).

Chain of human recombinant GPR65 (Q8IYL9 whole entry): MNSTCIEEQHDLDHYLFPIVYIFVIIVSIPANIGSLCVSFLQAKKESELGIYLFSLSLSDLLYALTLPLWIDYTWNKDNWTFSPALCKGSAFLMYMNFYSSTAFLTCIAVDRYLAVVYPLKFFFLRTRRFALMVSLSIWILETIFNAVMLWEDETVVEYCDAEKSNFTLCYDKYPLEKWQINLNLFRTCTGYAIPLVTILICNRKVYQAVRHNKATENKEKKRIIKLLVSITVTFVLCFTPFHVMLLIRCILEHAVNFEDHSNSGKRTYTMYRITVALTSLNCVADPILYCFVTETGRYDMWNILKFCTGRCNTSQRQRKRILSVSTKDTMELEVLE

As for `O=C(Nc1cc(Cl)c(Cl)cc1F)N1C2CCC1c1ncc(=O)[nH]c1C2` (racemic) [Compound 158, (±)—N-(4,5-Dichloro-2-fluorophenyl)-2-oxo-2,5,6,7,8,9-hexahydro-1H-5,8-epiminocyclohepta[b]pyrazine-10-carboxamide], the IC50 – broadly, the concentration that inhibits the measured activity by half – under setting [1] was greater than 5000 nM.
In the case of `O=C(Nc1cc(Cl)c(C(F)(F)F)cc1F)N1C2CCC1C(F)(F)c1c2ccnc1F` (racemic) [Compound 183, (±)—N-(5-Chloro-2-fluoro-4-(trifluoromethyl)phenyl)-1,9,9-trifluoro-6,7,8,9-tetrahydro-5H-5,8-epiminocyclohepta[c]pyridine-10-carboxamide], the IC50 was less than 500 nM.
Take `O=C(Nc1cc(Cl)c(C(F)(F)F)cc1F)N1C2CC[C@@H]1c1ccnc(F)c1C2O` (mixture of isomers) [Compound 204, (±)—(R)—N-(5-chloro-2-fluoro-4-(trifluoromethyl)phenyl)-1-fluoro-9-hydroxy-6,7,8,9-tetrahydro-5H-5,8-epiminocyclohepta[c]pyridine-10-carboxamide]: the IC50 under setting [1] lay within 500 to 5000 nM.
Consider `O=C(Nc1cc(Cl)c(Cl)cc1F)N1[C@@H]2CC[C@H]1[C@@H](F)c1ccnc(F)c12` (racemic) [Compound 284, ±(5-endo)-N-(4,5-dichloro-2-fluorophenyl)-1,5-difluoro-6,7,8,9-tetrahydro-5H-6,9-epiminocyclohepta[c]pyridine-10-carboxamide], for which the IC50 under setting [1] fell in the range of 500 to 5000 nM.
For `CN(C(=O)N1C2CCC1c1ccc(=O)n(C)c1C2)c1cc(Cl)c(Cl)cc1F` (racemic) [Compound 288, (±)—N-(4,5-Dichloro-2-fluorophenyl)-N,1-dimethyl-2-oxo-2,5,6,7,8,9-hexahydro-1H-5,8-epiminocyclohepta[b]pyridine-10-carboxamide], the IC50 under setting [1] is greater than 5000 nM.
With `O=C(Nc1cc(Cl)c(-c2ccc3nonc3c2)cc1F)N1C2CCC1C(F)(F)c1c2ccnc1F` (racemic) [Compound 289, (±)-N-(4-(Benzo[c][1,2,5]oxadiazol-5-yl)-5-chloro-2-fluorophenyl)-1,9,9-trifluoro-6,7,8,9-tetrahydro-5H-5,8-epiminocyclohepta[c]pyridine-10-carboxamide], the IC50 is less than 500 nM.
For the compound `O=C(Nc1cc(Cl)c(-c2ccc(OCC(F)(F)F)nc2)cc1F)N1C2CCC1C(F)(F)c1c2ccnc1F` (racemic) [Compound 290, (±)-N-(5-Chloro-2-fluoro-4-(6-(2,2,2-trifluoroethoxy)pyridin-3-yl)phenyl)-1,9,9-trifluoro-6,7,8,9-tetrahydro-5H-5,8-epiminocyclohepta[c]pyridine-10-carboxamide], the IC50 was less than 500 nM.
On to `O=C(Nc1cc(Cl)c(C(F)(F)F)cc1F)N1[C@H]2CC[C@@H]1c1n[nH]c(=O)cc1C2` [Compound 18, (6S,9R)-N-(5-Chloro-2-fluoro-4-(trifluoromethyl)phenyl)-3-oxo-3,5,6,7,8,9-hexahydro-2H-6,9-epiminocyclohepta[c]pyridazine-10-carboxamide], for which the IC50 is less than 500 nM.
On to `O=C(Nc1cc(Cl)c(C(F)(F)F)cc1F)N1[C@@H]2CC[C@H]1c1n[nH]c(=O)cc1C2` [Compound 19, (6R,9S)-N-(5-Chloro-2-fluoro-4-(trifluoromethyl)phenyl)-3-oxo-3,5,6,7,8,9-hexahydro-2H-6,9-epiminocyclohepta[c]pyridazine-10-carboxamide], for which the IC50 was less than 500 nM.
The same measure, in the same setting: the value for `O=C(Nc1cc(Cl)c(Cl)cc1F)N1[C@H]2CC[C@@H]1c1n[nH]c(=O)cc1C2` [Compound 20, (6S,9R)-N-(4,5-Dichloro-2-fluorophenyl)-3-oxo-3,5,6,7,8,9-hexahydro-2H-6,9-epiminocyclohepta[c]pyridazine-10-carboxamide] was less than 500 nM.
Take `O=C(Nc1cc(Cl)c(Cl)cc1F)N1[C@@H]2CC[C@H]1c1n[nH]c(=O)cc1C2` [Compound 21, (6R,9S)-N-(4,5-Dichloro-2-fluorophenyl)-3-oxo-3,5,6,7,8,9-hexahydro-2H-6,9-epiminocyclohepta[c]pyridazine-10-carboxamide]: under setting [1], the IC50 was in the range of 500 to 5000 nM.
